Results from ChEMBL document CHEMBL5537174, “Discovery of Potent SOS1 PROTACs with Effective Antitumor Activities against NCI-H358 Tumor Cells In Vitro/In Vivo” (J Med Chem, 2024).
Active and inactive are the calls of the source. The rule behind the calls is not given here.

Key:
NCI-H358 [1] = experiment: Antiproliferative activity against human NCI-H358 cells assessed as reduction in cell viability
NCI-H358 [2] = experiment: Antiproliferative activity against human NCI-H358 cells assessed as inhibition of cell proliferation incubated for 7 days by celltiter-glo 3D assay; assay type: functional, cell-based; settings: NCI-H358, 168 h
NCI-H358 [3] = experiment: Antiproliferative activity against human NCI-H358 cells harboring G12C mutant assessed as inhibition of cell proliferation incubated for 7 days by celltiter-glo 3D assay; assay type: functional, cell-based; settings: NCI-H358, 168 h
[4] = Antiproliferative activity against human GP2d cells harboring G12D mutant assessed as inhibition of cell proliferation incubated for 7 days by celltiter-glo 3D assay; assay type: functional, cell-based; settings: 168 h
NCI-H441 = experiment: Antiproliferative activity against human NCI-H441 cells harboring G12V mutant assessed as inhibition of cell proliferation incubated for 7 days by celltiter-glo 3D assay; assay type: functional, cell-based; settings: NCI-H441, 168 h
DLD-1 = experiment: Antiproliferative activity against human DLD-1 cells harboring G13D mutant assessed as inhibition of cell proliferation incubated for 7 days by celltiter-glo 3D assay; assay type: functional, cell-based; settings: DLD-1, 168 h
NCI-H358 [5] = experiment: Antitumor activity against human NCI-H358 cells xenografted in BALB/c nude mouse assessed as tumor growth inhibition at 30 mg/kg, ip measured twice daily for 21 days; assay type: functional; settings: NCI-H358, 504 h, time 21 day, read-out: TGI
[6] = Toxicity in BALB/c nude mouse xenografted with human NCI-H358 cells assessed as body weight loss at 30 mg/kg, ip measured every 3 days for 21 days; assay type: organism-based; settings: in vivo, 504 h, time 21 day
[7] = target: T1, Protein cereblon/Son of sevenless homolog 1 (Homo sapiens, UniProt Q07889+Q96SW2); experiment: PROTAC activity at CRBN/SOS1 in human NCI-H358 cells assessed as induction of SOS1 degradation incubated for 6 hrs by Western blotting analysis; assay type: cell-based; settings: read-out: DC50
Target sequence in this assay (Q07889 whole entry): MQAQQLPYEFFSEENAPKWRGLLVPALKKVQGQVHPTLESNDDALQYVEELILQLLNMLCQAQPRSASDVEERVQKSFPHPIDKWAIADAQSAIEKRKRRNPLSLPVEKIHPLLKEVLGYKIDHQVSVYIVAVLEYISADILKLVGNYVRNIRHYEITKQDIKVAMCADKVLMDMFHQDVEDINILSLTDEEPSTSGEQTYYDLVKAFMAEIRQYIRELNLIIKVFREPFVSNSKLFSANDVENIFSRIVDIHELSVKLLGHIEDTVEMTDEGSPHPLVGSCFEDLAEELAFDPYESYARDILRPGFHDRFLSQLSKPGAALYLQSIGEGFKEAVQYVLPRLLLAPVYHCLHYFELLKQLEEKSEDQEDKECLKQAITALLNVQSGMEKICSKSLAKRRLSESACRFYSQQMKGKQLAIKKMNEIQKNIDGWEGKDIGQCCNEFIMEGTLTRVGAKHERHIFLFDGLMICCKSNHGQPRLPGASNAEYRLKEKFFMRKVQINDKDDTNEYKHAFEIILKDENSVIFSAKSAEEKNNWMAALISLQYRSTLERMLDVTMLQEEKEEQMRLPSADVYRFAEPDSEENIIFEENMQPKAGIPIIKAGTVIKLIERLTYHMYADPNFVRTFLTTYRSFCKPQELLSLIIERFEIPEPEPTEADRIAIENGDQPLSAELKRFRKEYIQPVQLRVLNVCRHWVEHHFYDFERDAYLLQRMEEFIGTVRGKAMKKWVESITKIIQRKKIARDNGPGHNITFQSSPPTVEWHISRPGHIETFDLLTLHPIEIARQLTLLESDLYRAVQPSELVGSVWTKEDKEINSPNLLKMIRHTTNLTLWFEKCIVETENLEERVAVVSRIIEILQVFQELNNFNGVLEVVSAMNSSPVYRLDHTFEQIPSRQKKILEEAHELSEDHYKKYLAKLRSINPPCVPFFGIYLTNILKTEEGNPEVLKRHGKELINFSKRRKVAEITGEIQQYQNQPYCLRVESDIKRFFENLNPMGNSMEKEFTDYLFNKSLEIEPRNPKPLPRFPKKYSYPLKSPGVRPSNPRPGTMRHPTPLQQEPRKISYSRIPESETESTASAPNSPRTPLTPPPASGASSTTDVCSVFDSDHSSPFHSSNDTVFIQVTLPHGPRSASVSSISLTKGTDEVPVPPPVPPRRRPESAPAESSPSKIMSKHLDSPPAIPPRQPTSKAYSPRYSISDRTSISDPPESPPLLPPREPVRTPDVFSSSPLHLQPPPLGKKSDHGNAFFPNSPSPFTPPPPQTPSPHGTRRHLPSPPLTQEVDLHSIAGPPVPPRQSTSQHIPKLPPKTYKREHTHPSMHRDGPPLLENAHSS
Target sequence in this assay (Q96SW2 whole entry): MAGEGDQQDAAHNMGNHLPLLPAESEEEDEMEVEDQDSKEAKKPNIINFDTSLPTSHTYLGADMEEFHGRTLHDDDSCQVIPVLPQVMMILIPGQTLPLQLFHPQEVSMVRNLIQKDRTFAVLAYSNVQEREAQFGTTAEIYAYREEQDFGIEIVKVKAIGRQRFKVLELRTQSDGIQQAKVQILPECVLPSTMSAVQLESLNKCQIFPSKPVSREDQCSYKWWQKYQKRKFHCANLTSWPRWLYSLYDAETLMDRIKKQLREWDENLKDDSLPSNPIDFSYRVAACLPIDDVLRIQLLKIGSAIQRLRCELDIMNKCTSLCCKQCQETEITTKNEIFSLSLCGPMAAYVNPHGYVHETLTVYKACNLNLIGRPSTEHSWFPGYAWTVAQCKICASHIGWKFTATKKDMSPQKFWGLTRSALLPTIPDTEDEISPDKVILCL

NCI-H358 [8] = experiment: Potency index, ratio of test compound IC50 to BI3406 IC50 for antiproliferative activity against human NCI-H358 cells assessed as inhibition of cell proliferation incubated for 7 days by celltiter-glo 3D assay; assay type: functional; settings: time 7 day
[9] = target: T1, Protein cereblon/Son of sevenless homolog 1; experiment: PROTAC activity at CRBN/SOS1 in human NCI-H358 cells assessed as induction of SOS1 degradation at 0.1 to 1 uM incubated for 6 hrs by Western blotting analysis; assay type: cell-based; settings: dose 0.1-1 µM
Target sequence in this assay (Q07889 whole entry, looked up): as the sequence (Q07889 whole entry) above
Target sequence in this assay (Q96SW2 whole entry, looked up): as the sequence (Q96SW2 whole entry) above

[10] = target: T1, Protein cereblon/Son of sevenless homolog 1; experiment: PROTAC activity at CRBN/SOS1 in human NCI-H358 cells assessed as induction of SOS1 degradation at > 1 uM incubated for 6 hrs by Western blotting analysis; assay type: cell-based
Target sequence in this assay (Q07889 whole entry, looked up): as the sequence (Q07889 whole entry) above
Target sequence in this assay (Q96SW2 whole entry, looked up): as the sequence (Q96SW2 whole entry) above

[11] = Tmax in BALB/c nude mouse at 10 mg/kg, ip measured upto 24 hrs by LC-MS/MS analysis; assay type: ADME, organism-based; settings: in vivo
[12] = AUC (0 to t) in BALB/c nude mouse at 10 mg/kg, ip measured upto 24 hrs by LC-MS/MS analysis; assay type: ADME, organism-based; settings: in vivo
[13] = Cmax in BALB/c nude mouse at 10 mg/kg, ip measured upto 24 hrs by LC-MS/MS analysis; assay type: ADME, organism-based; settings: in vivo
[14] = AUC (0 to infinity) in BALB/c nude mouse at 10 mg/kg, ip measured upto 24 hrs by LC-MS/MS analysis; assay type: ADME, organism-based; settings: in vivo
[15] = Half life in BALB/c nude mouse at 10 mg/kg, ip measured upto 24 hrs by LC-MS/MS analysis; assay type: ADME, organism-based; settings: in vivo
[16] = target: Voltage-gated inwardly rectifying potassium channel KCNH2 (Homo sapiens, UniProt Q12809); experiment: Inhibition of hERG at -80 mV holding potential by whole cell patch clamp recording assay; assay type: toxicity
Cytochrome P450 3A4 = Cytochrome P450 3A4 (Homo sapiens, UniProt P08684); experiment: Inhibition of CYP3A4 in human liver microsome preincubated with compound for 5 mins followed by NADPH addition and measured after 5 mins by LC-MS/MS analysis; assay type: ADME, microsomes
SOS1-KRAS = SOS1-KRAS (Homo sapiens, UniProt Q07889); experiment: Inhibition of SOS1/KRAS G12C mutant (unknown origin); assay type: protein-complex assay

Chain of Voltage-gated inwardly rectifying potassium channel KCNH2 (Q12809 whole entry): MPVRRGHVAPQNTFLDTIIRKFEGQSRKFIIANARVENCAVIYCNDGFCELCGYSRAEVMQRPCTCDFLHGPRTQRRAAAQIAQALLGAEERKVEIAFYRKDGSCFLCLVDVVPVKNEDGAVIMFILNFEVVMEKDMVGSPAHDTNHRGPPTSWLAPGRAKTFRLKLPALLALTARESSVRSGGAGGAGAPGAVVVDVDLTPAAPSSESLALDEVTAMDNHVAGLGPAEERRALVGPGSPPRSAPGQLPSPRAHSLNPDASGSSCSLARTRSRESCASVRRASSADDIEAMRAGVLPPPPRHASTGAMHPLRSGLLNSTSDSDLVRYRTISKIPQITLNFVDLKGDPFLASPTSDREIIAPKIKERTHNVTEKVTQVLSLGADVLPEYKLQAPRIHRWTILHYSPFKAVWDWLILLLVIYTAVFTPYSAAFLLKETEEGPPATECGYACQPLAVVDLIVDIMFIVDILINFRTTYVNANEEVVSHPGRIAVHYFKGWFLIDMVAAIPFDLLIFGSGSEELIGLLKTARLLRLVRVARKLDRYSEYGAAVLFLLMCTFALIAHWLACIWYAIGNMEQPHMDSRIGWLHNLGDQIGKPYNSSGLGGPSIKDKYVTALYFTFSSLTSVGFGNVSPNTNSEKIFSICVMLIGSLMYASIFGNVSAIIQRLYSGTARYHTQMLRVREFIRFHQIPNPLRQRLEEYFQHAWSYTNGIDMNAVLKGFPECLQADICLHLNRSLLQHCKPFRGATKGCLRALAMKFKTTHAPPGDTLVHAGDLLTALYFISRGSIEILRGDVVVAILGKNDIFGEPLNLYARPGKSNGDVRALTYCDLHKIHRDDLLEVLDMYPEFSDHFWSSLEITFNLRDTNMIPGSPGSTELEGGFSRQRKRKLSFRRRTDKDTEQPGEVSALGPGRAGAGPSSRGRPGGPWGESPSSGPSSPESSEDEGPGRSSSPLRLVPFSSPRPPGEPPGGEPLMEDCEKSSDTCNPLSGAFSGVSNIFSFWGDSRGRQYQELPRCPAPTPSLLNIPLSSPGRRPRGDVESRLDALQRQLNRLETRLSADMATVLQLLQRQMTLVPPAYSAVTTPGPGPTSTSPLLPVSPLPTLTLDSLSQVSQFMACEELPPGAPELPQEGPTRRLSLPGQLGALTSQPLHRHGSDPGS
Chain of Cytochrome P450 3A4 (P08684 whole entry): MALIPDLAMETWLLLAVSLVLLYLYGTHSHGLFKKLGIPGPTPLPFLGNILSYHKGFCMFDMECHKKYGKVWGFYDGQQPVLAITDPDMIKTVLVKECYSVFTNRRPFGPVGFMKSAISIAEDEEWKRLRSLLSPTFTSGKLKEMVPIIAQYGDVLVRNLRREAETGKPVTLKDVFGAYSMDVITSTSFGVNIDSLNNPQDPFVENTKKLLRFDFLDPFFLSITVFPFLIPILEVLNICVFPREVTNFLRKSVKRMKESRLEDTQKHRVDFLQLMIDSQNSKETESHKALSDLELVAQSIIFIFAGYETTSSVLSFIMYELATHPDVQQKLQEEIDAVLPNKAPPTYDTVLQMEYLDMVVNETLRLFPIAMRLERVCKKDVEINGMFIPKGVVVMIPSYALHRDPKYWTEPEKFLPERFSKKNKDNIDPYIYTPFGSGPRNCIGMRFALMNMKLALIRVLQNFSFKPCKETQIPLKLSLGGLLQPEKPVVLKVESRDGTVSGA

Row | SMILES | IC50 (NCI-H358 [2]) [nM] | IC50 (NCI-H358 [3]) [nM] | IC50 [4] [nM] | IC50 (NCI-H441) [nM] | IC50 (DLD-1) [nM] | inhibition in vivo at 30 mg/kg (NCI-H358 [5]) [%] | Activity [6] | DC50 [7] [nM] | also measured
1 | COc1cc2nc(C)nc(N[C@H](C)c3cc(N)cc(C(F)(F)F)c3)c2cc1O[C@H]1CCOC1 | 26 | 26 | 17 | 68 | 102 | 39.4 | Non-Toxic |  | IC50 (NCI-H358 [1]): 24 nM
2 | COc1cc2nc(C)nc(N[C@H](C)c3cc(N)cc(C(F)(F)F)c3)c2cc1OCC1(CN(C)C(=O)CCCCCCNc2cccc3c2CN(C2CCC(=O)NC2=O)C3=O)CC1 (some centres not stated) | 47 |  |  |  |  |  |  | 151 | 
3 | COc1cc2nc(C)nc(N[C@H](C)c3cc(N)cc(C(F)(F)F)c3)c2cc1OCC1(CN(C)C(=O)CCCCCCNc2cccc3c2C(=O)N(C2CCC(=O)NC2=O)C3=O)CC1 (some centres not stated) | 5 | 5 | 2150 | 43 | 63 | 58.8 | Non-Toxic | 13 | Ratio IC50 (NCI-H358 [8]): 5; Activity [9]: Active; Activity [10]: inactive; Tmax [11]: 1 h; AUC(0-t) at 24 h [12]: 4370 ng·h/mL; Cmax [13]: 1870 ng/mL; AUC(0-inf) [14]: 4380 ng·h/mL; half-life [15]: 4.05 h; IC50 [16]: > 30000 nM; IC50 (Cytochrome P450 3A4): 320 nM
4 | COc1cc2nc(C)nc(N[C@H](C)c3cc(N)cc(C(F)(F)F)c3)c2cc1OCC1(CN(C)C(=O)CCCCCCNc2ccc(F)c3c2C(=O)N(C2CCC(=O)NC2=O)C3=O)CC1 (some centres not stated) | 23 |  |  |  |  |  |  | 63 | 
5 | CNCC1(COc2cc3c(N[C@H](C)c4cc(N)cc(C(F)(F)F)c4)nc(C)nc3cc2OC)CC1 | 102 |  |  |  |  |  |  |  | IC50 (SOS1-KRAS): 10 nM
